Like-named read-outs stand apart in the source and are kept apart here.
Legend:
H2981 tumor cells [1] = experiment: 3H-thymidine uptake assay on H2981 cells, PVA conjugates with APO; assay type: cell-based; conditions: Homo sapiens; H2981 cells untreated with any conjugate
Protocol: The in vitro cytotoxic effect of the antibody-PVA/ adriamycin prodrug combination of the invention toward H2981 tumor cells was measured using the ^3H-thymidine uptake assay described in Examples 1 and 2 above. Briefly, the H2981 tumor cells were plated into 96-well microtiter plates in IMDM (10,000 cells/well) and were allowed to attached for 18 h at 37°C. The antibody-PVA conjugates, L6-PVA or 1F5-PVA, were then added at a concentration of 10 µg/ml of antibody and the plates were incubated for 30 min at 4°C. The wells were then washed four times with IMDM and APO was added at varying concentrations in IMDM. After two h, the wells were again washed, IMDM was added and the cells were left for 18 h at 37°C. At that point, ^3H-thymidine was added (1 µCi per well) and after 6 h, the plates were frozen at -70°C to detach the cells. After thawing, the cells were harvested onto glass fiber filters. The incorporation of ^3H-thymidine was measured in a Beckman 3801 scintillation counter and compared to cells treated with APO or adriamycin (ADM) alone.

penicillin V amidase = experiment: Hydrolysis of APO to adriamycin by PVA or L6-PVA conjugate (HPLC); assay type: biochemical, Fusarium oxysporum
Protocol: The ability of the antibody-PVA conjugate, L6-PVA, to convert the novel prodrug, APO, to adriamycin was measured as follows: either a) PVA alone (final concentration:50 µg/ml), b) 100 µg/ml of the L6-PVA conjugate (final PVA concentration: 25 µg/ml) or c) 10 µg/ml of L6-PVA (final PVA concentration: 2.5 µg/ml) were added to a solution of APO (0.1 mM) in PBS. Each reaction was monitored by HPLC using a Phenominex C-18 column (3 µm, 4.5 x 100 mm) and a gradient elution of 20-60% tetrahydrofuran in water with 0.1% H3PO4 (1.0 ml/min, monitored at 495 nm). Under these conditions, the adriamycin eluted at 8.9 minutes and the APO eluted at 12.2 minutes.

H2981 tumor cells [2] = tested on: H2981 tumor cells
H3347 tumors = experiment: In vivo antitumor effect, conjugate/etoposide phosphate, s.c. H3347 tumors; parameters: species or system nude mice; conditions: for antitumor effect on tumor growth: Figure 11, conjugates i.p. 18-24 h prior to EP; for tolerability in the animals: nude mice, maximum tolerated doses; for RESPONSE complete / RESPONSE partial / RESPONSE progression / RESPONSE stable: number of 16 tumors in each group, 23 days after tumor implant
Protocol: First, Balb/C nu/nu female mice (4-6 wk old) (obtained from Life Sciences, St. Petersburg, Florida) were injected with 10^7 H3347 tumor cells subcutaneously (s.c.) in the left and right hind flanks. The tumor cells were obtained from in vitro cultures that had been suspended by treatment for 2 min with trypsin (0.5 g/l) and EDTA (0.2 g/l). The cells were washed twice with IMDM and incubated for 1 h at 37°C in IMDM with 10% fetal calf serum. The cells were washed, suspended in PBS, and kept at 4°C prior to injection. Both the localization and therapy studies described herein were initiated when the tumors reached an average size of 225 mm^3.
Therapy experiments were performed on nude mice that had s.c. tumors approximately 225 mm^3 in volume. The conjugates, L6-AP and 1F5-AP, were administered (i.p.) 18-24 h prior to treatment with EP. Tumor growth was compared to that in untreated mice and in mice treated with maximum tolerated doses of etoposide or EP alone.
More particularly, a group of 8 nude mice with bilateral H3347 tumors was treated with either etoposide (0.2 ml containing 1.2 mg etoposide in 2:3 DMSO:H2O) or EP (0.2 ml containing 2 mg EP in H2O) alone or with L6-AP (0.1 ml containing 300 µg antibody in PBS) or 1F5-AP (0.1 ml containing 300 µg antibody in PBS) followed by EP treatment Each experiment contained a control group of mice that was untreated. Tumor volumes were estimated at various days post tumor implant, using the formula: ([(perpendicular width)^2 /2)] X longest length [formula]

Alkaline phosphatase = experiment: Hydrolysis of etoposide phosphate prodrugs by AP or L6-AP conjugate (HPLC); conditions: for hydrolysis by alkaline phosphatase, relative rate: Figure 5
H3347 tumor cells [3] = experiment: Clonogenic cytotoxicity (colony inhibition) assay; assay type: cell-based; conditions: Homo sapiens, 15 hours drug exposure, colonies counted 7-10 days later
Protocol: The clonogenic cytotoxicity assay we used was the colony inhibition assay described by I. Hellstrom et al., "Colony Inhibition And Cytotoxicity Assays," in In Vitro Methods In Cell-Mediated Immunity, Bloom and Glade (ed.s), pp.- 409-14 (1971). The cells used to detect cytotoxicity were the H3347 tumor cells described above. Both the L6-AP and 96.5-AP conjugates were tested for their ability to convert prodrug into the free drug.
Briefly, the H3347 cells (10^6/ml) were suspended in IMDM growth media (containing 10 µg/ml of each immunoconjugate based on antibody concentration) and incubated for 30 min at 37°C. The cells were washed twice, resuspended in IMDM, and the drug or prodrug in medium was added. Incubation at 37°C was continued for 15 hours. After washing twice, the cells were plated out and the number of colonies (>8 cells/colony) were counted 7-10 days later.

H3347 tumor cells [4] = experiment: 3H-thymidine uptake assay on H3347 cells; assay type: cell-based, human
[5] = Stability of aqueous solutions of etoposide prodrugs; assay type: physicochemical
Protocol: For example, either AP alone or the antibody-enzyme conjugate, L6-AP, produced as described above (final AP concentration 5 µg/ml) were added to a solution of etoposide-4'-phosphate (0.1 mM) in Tris buffer (100 mM) containing MgCl2 (1 mM) and ZnCl2 (0.1 mM) at pH 7.0. The reaction was monitored by HPLC using an IBM C-18 column (3 µ, 4.5 x 100 mm) and 50% aqueous methanol as eluant (0.5 ml/min, monitored at 254 nm). […] Aqueous solutions of etoposide phosphate or etoposide thiophosphate were stable for at least 8 hours at room temperature and for several days at 4°C.

H2981 tumor = experiment: In vivo antitumor effect, conjugate/mitomycin prodrug and MOP/EP combinations, s.c. H2981 tumor; parameters: species or system nude Balb C nu/nu female mice; conditions: for antitumor activity in vivo: Figures 18 and 19, conjugates 18-24 h prior to prodrug; for time required to reach an average tumor volume of 750 mm^3: H2981 tumor, maximum tolerated doses
Protocol: Therapy studies were then performed on nude Balb C nu/nu female mice (6 mice per treatment group) (4-6 wk old) obtained from Life Sciences (St. Petersburg, Fla.) that had been implanted (s.c., right hind flank) with a H2981 tumor obtained from in vivo sourcing. The experiments were run when the tumors reached approximately 100 mm^3 in volume. The L6-AP and 1F5-AP conjugates (0.1 ml containing 250 µg antibody in PBS) were each administered (i.p.) 18-24 h prior to treatment with MOP (0.2 ml containing 0.6 mg MOP in H2O). Tumor growth was compared to that observed in untreated mice and in mice treated with maximum tolerated doses of MOP (0.2 ml containing 0.6 mg MOP in H2O) or MOH (0.2 ml containing 0.2 mg MOH in H2O) alone.
The prodrugs, EP and MOP, were prepared as described in Examples 1 and 2, respectively. Preparation of the L6-AP and 1F5-AP immunoconjugates is described in Example 1. The in vivo studies on nude mice were carried out as described in Examples 1 and 2 above. Thus, nude mice that had been implanted with a H2981 tumor were pre-exposed to the L6-AP or 1F5-AP conjugate 18-24 h prior to treatment with a combination of MOP/EP (0.2 ml containing 1 mg EP and 0.3 mg MOP in H2O). Tumor growth was compared to that observed in untreated mice and in mice treated with the MOP/EP combination alone.

[6] = Relative toxicities of MOH and MOP in mice; parameters: species or system Balb C nu/nu mice; conditions: mouse, in vivo, ip; for LD50: two equal doses spaced 4 days apart; for MTD: given in 4 equal doses over a 25 day period, read-out: total amounts well tolerated
Protocol: Prior to investigating the in vivo antitumor activity of MOP in combination with the L6-AP conjugate the relative toxicities of the prodrug and its released active derivative, MOH, were determined in Balb C nu/nu mice. […] Total amounts of up to 40 mg/kg of MOH and 100 mg/kg of MOP were well tolerated if given in 4 equal doses over a 25 day period.

H2981 tumor cells [7] = experiment: cells; conditions: Homo sapiens
[8] = tested on: calf intestinal or human placental AP; experiment: Reactivity of MOP with AP (HPLC); assay type: biochemical; conditions: MOP 1 mM, AP 1 µg/ml, 100 mM Tris pH 7.2, room temperature
Protocol: The MOP prodrug was then tested for its reactivity with AP. […] The course of the reaction was monitored by HPLC using a C-18 column (4.6 x 150 mm) and the following conditions: detection at 280 nm; 30-95% methanol in acetate buffer (100 mM, pH 5.2) over 8 min, re-equilibration after 15 min; 0.8 ml/min flow rate. Under these conditions, MMC eluted at 7.0 min, MOH eluted at 8.5 min, and MOP eluted 4.0 min. […] HPLC served to confirm that the corresponding alcohol, MOH, was formed. Under the reaction conditions used, the half life for hydrolysis of MOP was about 10 min and the reaction went to completion within 40 min.

[9] = by day 63, mitomycin derivatives (Table 3)

COc1cccc2c1C(=O)c1c(O)c3c(c(O)c1C2=O)C[C@@](O)(C(=O)CO)C[C@@H]3O[C@H]1C[C@H](NC(=O)COc2ccc(O)cc2)[C@H](O)[C@H](C)O1 [APO, N-(p-hydroxyphenoxyacetyl)adriamycin]
IC50 (H2981 tumor cells [1]): 2000 nM | time to effect this level of hydrolysis (at least 80%) (penicillin V amidase; L6-PVA conjugate at 10 µg/ml (2.5 µg/ml of PVA)): 120 min | hydrolysis of APO to adriamycin (penicillin V amidase; within 40 minutes, PVA alone 50 µg/ml or L6-PVA conjugate 100 µg/ml): at least 80%

COc1cc(C2c3cc4c(cc3C(OC3OC5COC(C)OC5C(O)C3O)C3COC(=O)C23)OCO4)cc(OC)c1OP(=O)(O)O (stereo not drawn) [EP, 4'-disodium phosphate ester of etoposide]
kill (H2981 tumor cells [2]; human, h2981 cells, 30 µM): 20% | antitumor effect on tumor growth (H3347 tumors): greater antitumor effect than seen with etoposide itself | tolerability in the animals (H3347 tumors): less toxic to the animals | RESPONSE complete (H3347 tumors): 0 | RESPONSE partial (H3347 tumors): 0 | RESPONSE progression (H3347 tumors): 6 | RESPONSE stable (H3347 tumors): 10 | hydrolysis by alkaline phosphatase, relative rate (Alkaline phosphatase): hydrolyzed by the enzyme more rapidly than the etoposide thiophosphate prodrug | phosphate hydrolysis in the absence of enzyme (Alkaline phosphatase; Tris buffer pH 7.0, no enzyme): no phosphate hydrolysis occurred | hydrolysis of the etoposide-4'-phosphate to etoposide (Alkaline phosphatase; within 5 min of the start, AP free or as L6-AP conjugate, final AP concentration 5 µg/ml, prodrug 0.1 mM, pH 7.0): at least 85 X | IC50 (H3347 tumor cells [3]): 5800 nM | inhibition at 100 µM (H3347 tumor cells [4]; Homo sapiens, at 100 µM): 35% | stability of aqueous solutions ([5]; 4°C): several days | stability of aqueous solutions ([5]; room temperature): at least 8 hours

CO[C@@]12[C@H](COC(N)=O)C3=C(C(=O)C(C)=C(N)C3=O)N1C[C@@H]1N[C@@H]12 [MMC, mitomycin C, reference compound]
IC50 (H2981 tumor cells [2]): ~1000 nM

CO[C@@]12[C@H](COC(N)=O)C3=C(C(=O)C(C)=C(NCCO)C3=O)N1C[C@@H]1N[C@@H]12 [MOH, 7-[(2-hydroxyethyl)amino]-9a-methoxymitosane, reference compound]
antitumor activity in vivo (H2981 tumor): significant antitumor activities in vivo | time required to reach an average tumor volume of 750 mm^3 (H2981 tumor): 45 days | TUMOR RESPONSES PROGRESSION (H2981 tumor; [9]): 6/6 | LD50 [6]: 45 mg/kg | MTD [6]: ≥ 40 mg/kg | IC50 (H2981 tumor cells [7]): ~1000 nM

CO[C@@]12[C@H](COC(N)=O)C3=C(C(=O)C(C)=C(NCCOP(=O)(O)O)C3=O)N1C[C@@H]1N[C@@H]12 [MOP, 7-(2'-aminoethyl phosphate)mitomycin]
antitumor activity in vivo (H2981 tumor): significant antitumor activities in vivo | time required to reach an average tumor volume of 750 mm^3 (H2981 tumor): 63 days | TUMOR RESPONSES PROGRESSION (H2981 tumor; [9]): 4/5 | TUMOR RESPONSES STABLE (H2981 tumor; [9]): 1/5 | cell kill (H2981 tumor cells [2]; at 10 µM, H2981 cells): 5% | LD50 [6]: 90 mg/kg | MTD [6]: ≤ 100 mg/kg | time for the reaction to go to completion [8]: ≤ 40 min

COc1cc(C2c3cc4c(cc3C(OC3OC5COC(C)OC5C(O)C3O)C3COC(=O)C23)OCO4)cc(OC)c1OP(O)(O)=S (stereo not drawn) [etoposide thiophosphate, 4'-disodium thiophosphate ester of etoposide]
hydrolysis by alkaline phosphatase, relative rate (Alkaline phosphatase): increased stability towards hydrolysis | stability of aqueous solutions ([5]; 4°C): several days | stability of aqueous solutions ([5]; room temperature): at least 8 hours

COc1cc([C@@H]2c3cc4c(cc3[C@@H](O[C@@H]3O[C@@H]5CO[C@@H](C)O[C@H]5[C@H](O)[C@H]3O)[C@H]3COC(=O)[C@H]23)OCO4)cc(OC)c1O [etoposide, reference compound]
antitumor effect on tumor growth (H3347 tumors): very little effect on tumor growth | tolerability in the animals (H3347 tumors): higher doses were not well tolerated | RESPONSE complete (H3347 tumors): 0 | RESPONSE partial (H3347 tumors): 0 | RESPONSE progression (H3347 tumors): 12 | RESPONSE stable (H3347 tumors): 4 | IC50 (H3347 tumor cells [3]): 200 nM | toxicity relative to EP (H3347 tumor cells [4]): more than 100 fold | IC50 (H3347 tumor cells [4]; Homo sapiens, 6 h drug exposure): 1000 nM | IC50 (H2981 tumor cells [7]): 2000 nM
